In US20070099871A1, “Bioreductively-activated prodrugs” (ANGIOGENE PHARMACEUTICALS LIMITED, priority 2003, published 2007):
Where two headings read alike, the source gives them in different places. Values belong to the compound of their own block, whether it stands above or below them.

Assays:
A549 cells = assay: Cellular cytotoxicity (Celltiter 96 MTS assay); assay type: cell-based; details: A549, 6 h exposure then 72 h incubation
Text: The cytotoxic or cytostatic properties of compounds of formula (1) and compounds of formula DrXH can be assessed for example, by use, for example, of this assay. The Celltiter 96® Aqueous One Solution Cell Proliferation Assay kit (Promega Corporation, USA) which is a colorimetric method for determining the number of viable cells in proliferation or cytotoxicity assays was used. In this assay the MTS tetrazolium compound (Owen's Reagent) is bioreduced by viable cells into a coloured formazan product which is soluble in tissue culture medium and can be measured by recording absorbance at 490 nm with a 96 well plate reader. A549 cells were seeded in Eagles Minimum Essential Medium supplemented with 10% foetal calf serum and non-essential amino acids at […] on a 96 well plate and allowed to attach for 24 h. Compounds were dissolved in DMSO and diluted with cell culture medium before addition. The cells were exposed to test compound (0 to 2 μmol dm^−3) for 6 h then incubated for a further 72 h. The MTS reagent was added to each well, left for 4 h, then the absorbance measured at 490 nm with a 96 well plate reader. In this assay the compound of Example 1 had no activity at concentrations up to […] whereas combretastatin A4 reduced cell numbers to 50% of control at a concentration of around 250 nM.

[1] = molecular target: T1, Supersomal p450 reductase (Homo sapiens, UniProt P16435); assay: Drug release by cytochrome p450 reductase; assay type: biochemical; details: NADPH, pH 7.4, 37° C.
T1 construct: purchased Gentest P244
T1 sequence (P16435 1-677): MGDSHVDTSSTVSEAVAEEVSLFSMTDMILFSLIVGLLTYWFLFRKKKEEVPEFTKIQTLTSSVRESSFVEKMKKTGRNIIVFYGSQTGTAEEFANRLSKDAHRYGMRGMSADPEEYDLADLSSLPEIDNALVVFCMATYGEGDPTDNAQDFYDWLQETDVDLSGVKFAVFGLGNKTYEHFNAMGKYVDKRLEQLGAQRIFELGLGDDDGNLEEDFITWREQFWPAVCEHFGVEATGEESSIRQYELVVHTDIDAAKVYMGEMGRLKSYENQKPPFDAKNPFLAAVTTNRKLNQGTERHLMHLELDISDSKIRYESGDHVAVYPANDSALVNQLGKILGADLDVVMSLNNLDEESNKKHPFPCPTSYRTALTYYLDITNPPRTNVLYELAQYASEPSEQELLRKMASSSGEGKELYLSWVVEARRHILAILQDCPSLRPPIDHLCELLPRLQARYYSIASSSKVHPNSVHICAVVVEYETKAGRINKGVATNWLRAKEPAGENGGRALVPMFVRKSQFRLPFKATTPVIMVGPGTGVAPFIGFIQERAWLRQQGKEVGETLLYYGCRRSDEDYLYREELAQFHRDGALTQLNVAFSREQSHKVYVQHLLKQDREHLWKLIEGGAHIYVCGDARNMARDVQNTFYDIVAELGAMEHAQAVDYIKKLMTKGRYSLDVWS
Method: Cytochrome p450 reductase is widely expressed in human tumours as well as in a range of normal tissues and is one of a number of enzymes that can catalyse bioreduction. […] Compounds were dissolved in DMSO to a concentration of 625 μM and 20 μL added to a mixture of 50 mmol dm^−3 potassium phosphate buffer at pH 7.4 (2.4 mL), NADPH (20 μL of a 10 mM solution) and 60 μL of Supersomal™ p450 reductase (Gentest; Catalogue number P244) and incubated at 37° C. For experiments under nitrogen the mixture was degassed with nitrogen for 20 minutes prior to compound addition and overgassed with nitrogen during the incubation. Samples (100 μl) were taken at regular intervals and added to an equivalent volume of acetonitrile, then mixed and centrifuged at 14, 300 RPM for 2 min prior to product analysis by HPLC. In this test the compound of Example 1 produced combretastatin A4 at a rate of […]·min^−1·mg protein^−1 under nitrogen but only 110 pmol·min^−1·mg protein^−1 under air.

[2] = Metabolism in liver homogenates; assay type: in vitro ADME; details: in air, mouse liver homogenate, NADPH, pH 7.4, 37° C.
Method: Metabolic stability of the compounds and unfavorable release of the drug by oxic liver can be assessed by using, for example, this assay. Freshly-excised mouse liver (approximately 1 g) was homogenised in 15 ml of ice-cold 50 mmol d-3 potassium phosphate buffer at pH 7.4. The homogenates were centrifuged at 1000 RPM for 10 min and the supernatants stored on ice. The metabolism of […] prodrug in air was performed with 0.5 ml liver homogenate (∫4 mg of protein by Bradford assay) with 100 μmol dm^−3 NADPH in 50 mmol dm^−3 potassium phosphate buffer at pH 7.4 incubated at 37° C. Samples (60 μl) were taken at regular intervals and added to an equivalent volume of acetonitrile, then mixed and centrifuged at 14, 300 RPM for 2 min prior to product analysis by HPLC. In this test the compound of Example 1 produced combretastatin A4 at a rate of only 3 pmol·min^−1·mg protein^−1. In contrast the corresponding compound 1-(4-methoxy-3-(5-nitrothiene-2-yl)methoxy)phenyl-2-(3,4,5-trimethoxy)phenyl-Z-ethene, lacking the key features of the invention produced combretastatin at a greater rate of 20 pmol·min^−1·mg proteins^−1.

melting point: 206 to 208 °C
Structure (SMILES): CC(C)(Sc1ncnc2[nH]cnc12)c1ccc([N+](=O)[O-])cc1 [Example 4, 6-(2-(4-nitrophenyl)propan-2-ylsulfanyl)-9H-purine]

Structure (SMILES): COc1ccc(/C=C\c2cc(OC)c(OC)c(OC)c2)cc1OC(C)(C)c1ccc([N+](=O)[O-])s1 [Example 1]
IC50 (A549 cells; Homo sapiens, read-out: No activity at concentrations up to): > 2000 nM
Rate of combretastatin A4 production ([1]; under air): 110 pmol·min^−1·mg protein^−1
Rate of combretastatin A4 production ([1]; under nitrogen): 710 ppmol·min^−1·mg protein^−1

Structure (SMILES): COc1ccc(/C=C\c2cc(OC)c(OC)c(OC)c2)cc1O [combretastatin A4, reference compound]
IC50 (A549 cells; read-out: Concentration reducing cell numbers to 50% of control): ~250 nM

Structure (SMILES): COc1ccc(/C=C\c2cc(OC)c(OC)c(OC)c2)cc1OCc1ccc([N+](=O)[O-])s1 [1-(4-methoxy-3-(5-nitrothiene-2-yl)methoxy)phenyl-2-(3,4,5-trimethoxy)phenyl-Z-ethene]
Rate of combretastatin A4 production [2]: 20 pmol·min^−1·mg protein^−1
